For data set [1] the following is noted: Crystal.
Data set [2] can be described thus: Molar enthalpy of transition or fusion. The following applies: Crystal; DSC.

Numbers after ± are expanded uncertainties.

Turning to `Brc1ccc(-c2ccc(Br)cc2)cc1` [4,4'-dibromo-1,1'-biphenyl], the Normal melting temperature in data set [1] (visual observation) was 167.50 ± 0.5 °C. The “Molar enthalpy of transition or fusion” value in data set [2] amounted to 6.78 ± 0.203 kcal/mol.

Regarding `N#CCCC#N` [butanedinitrile], the Normal melting temperature in data set [1] (DTA) amounted to 56.50 ± 0.5 °C. The “Molar enthalpy of transition or fusion” value in data set [2] was 0.884 ± 0.0765 kcal/mol.

The values are drawn from the NIST ThermoML archive (doi:10.1016/j.tca.2009.06.012).
